The text below walks through data of PubChem BioAssay AID1259407 (Chemical Carcinogenesis Research Information System (CCRIS), 2018).

In this data set the test system is CCRIS mutagenicity, Ames/micronucleus/aberration tests. In words: CCRIS mutagenicity studies.
The mark [1] stands for this setting: Test System: MOUSE LYMPHOMA, Strain/Indicator: L5178Y (TK+/TK-), Metabolic Activation: NONE, Method: SUSPENSION/PLATE.

Active and inactive are the calls of the source. How the calls were made is not given here.

On to `CCCCCCCCCCCC(=O)OCCS(=O)(=O)O`, for which the mutagenic call reads like this: (Test System: AMES SALMONELLA TYPHIMURIUM, Strain/Indicator: TA98, Metabolic Activation: HAMSTER, LIVER, S-9, AROCLOR 1254, Method: STANDARD PLATE) “inactive; negative”; (Test System: AMES SALMONELLA TYPHIMURIUM, Strain/Indicator: TA98, Metabolic Activation: NONE, Method: STANDARD PLATE) “inactive; negative”; (Test System: AMES SALMONELLA TYPHIMURIUM, Strain/Indicator: TA98, Metabolic Activation: RAT, LIVER, S-9, AROCLOR 1254, Method: STANDARD PLATE) “inactive; negative”; (Test System: AMES SALMONELLA TYPHIMURIUM, Strain/Indicator: TA100, Metabolic Activation: HAMSTER, LIVER, S-9, AROCLOR 1254, Method: STANDARD PLATE) “inactive; negative”; (Test System: AMES SALMONELLA TYPHIMURIUM, Strain/Indicator: TA100, Metabolic Activation: NONE, Method: STANDARD PLATE) “inactive; negative”; (Test System: AMES SALMONELLA TYPHIMURIUM, Strain/Indicator: TA100, Metabolic Activation: RAT, LIVER, S-9, AROCLOR 1254, Method: STANDARD PLATE) “inactive; negative”. The mutagenic call by setting is: (Test System: AMES SALMONELLA TYPHIMURIUM, Strain/Indicator: TA1535, Metabolic Activation: HAMSTER, LIVER, S-9, AROCLOR 1254, Method: STANDARD PLATE) “inactive; negative”; (Test System: AMES SALMONELLA TYPHIMURIUM, Strain/Indicator: TA1535, Metabolic Activation: NONE, Method: STANDARD PLATE) “inactive; negative”; (Test System: AMES SALMONELLA TYPHIMURIUM, Strain/Indicator: TA1535, Metabolic Activation: RAT, LIVER, S-9, AROCLOR 1254, Method: STANDARD PLATE) “inactive; negative”; (Test System: AMES SALMONELLA TYPHIMURIUM, Strain/Indicator: TA1537, Metabolic Activation: HAMSTER, LIVER, S-9, AROCLOR 1254, Method: STANDARD PLATE) “inactive; negative”; (Test System: AMES SALMONELLA TYPHIMURIUM, Strain/Indicator: TA1537, Metabolic Activation: NONE, Method: STANDARD PLATE) “inactive; negative”; (Test System: AMES SALMONELLA TYPHIMURIUM, Strain/Indicator: TA1537, Metabolic Activation: RAT, LIVER, S-9, AROCLOR 1254, Method: STANDARD PLATE) “inactive; negative”. Also, the mutagenic call is, setting by setting: under setting [1], “inactive; negative. reevaluation of results: negative”; (Test System: MOUSE LYMPHOMA, Strain/Indicator: L5178Y (TK+/TK-), Metabolic Activation: RAT, LIVER, S-9, AROCLOR 1254, Method: SUSPENSION/PLATE) “inactive; negative. reevaluation of results: negative”.

As for `C=C(C)C(=O)OCC(OC1=CCCC1)OC1=CCCC1`, under setting [1], the mutagenic call was “inactive; negative”.

On to `O=[N+]([O-])c1ccc2c(c1)oc1ccc([N+](=O)[O-])cc12`, for which the mutagenic call is, setting by setting: (Test System: AMES SALMONELLA TYPHIMURIUM, Strain/Indicator: TA98(1,8-DNP6), Metabolic Activation: NONE, Method: PREINCUBATION) “active; positive”; (Test System: AMES SALMONELLA TYPHIMURIUM, Strain/Indicator: TA98(1,8-DNP6), Metabolic Activation: NONE, Method: SUSPENSION) “active; positive”; (Test System: AMES SALMONELLA TYPHIMURIUM, Strain/Indicator: TA98(1,8-DNP6), Metabolic Activation: RAT, LIVER, S-9, PCB (5%), Method: PREINCUBATION) “active; positive”; (Test System: AMES SALMONELLA TYPHIMURIUM, Strain/Indicator: TA98(NR), Metabolic Activation: NONE, Method: PREINCUBATION) “inactive; negative”; (Test System: AMES SALMONELLA TYPHIMURIUM, Strain/Indicator: TA98(NR), Metabolic Activation: NONE, Method: SUSPENSION) “inactive; negative”; (Test System: AMES SALMONELLA TYPHIMURIUM, Strain/Indicator: TA98(NR), Metabolic Activation: RAT, LIVER, S-9 (10%), Method: PREINCUBATION) “active; positive”. Moreover, the mutagenic call is, setting by setting: (Test System: AMES SALMONELLA TYPHIMURIUM, Strain/Indicator: TA98(NR), Metabolic Activation: RAT, LIVER, S-9, 3-METHYLCHOLANTHRENE (10%), Method: PREINCUBATION) “active; positive”; (Test System: AMES SALMONELLA TYPHIMURIUM, Strain/Indicator: TA98(NR), Metabolic Activation: RAT, LIVER, S-9, BETA-NAPHTHOFLAVONE (10%), Method: PREINCUBATION) “active; positive”; (Test System: AMES SALMONELLA TYPHIMURIUM, Strain/Indicator: TA98(NR), Metabolic Activation: RAT, LIVER, S-9, PCB (5 OR 10%), Method: PREINCUBATION) “active; positive”; (Test System: AMES SALMONELLA TYPHIMURIUM, Strain/Indicator: TA98(NR), Metabolic Activation: RAT, LIVER, S-9, PHENOBARBITAL (10%), Method: PREINCUBATION) “active; positive”; (Test System: AMES SALMONELLA TYPHIMURIUM, Strain/Indicator: TA98, Metabolic Activation: NONE, Method: PREINCUBATION) “active; positive”; (Test System: AMES SALMONELLA TYPHIMURIUM, Strain/Indicator: TA98, Metabolic Activation: NONE, Method: SUSPENSION) “active; positive”. Further, the mutagenic call by setting is: (Test System: AMES SALMONELLA TYPHIMURIUM, Strain/Indicator: TA98, Metabolic Activation: RAT, LIVER, S-9, PCB (5%), Method: PREINCUBATION) “active; positive”; (Test System: AMES SALMONELLA TYPHIMURIUM, Strain/Indicator: TA98, Metabolic Activation: RAT, LIVER, S-9, PCB, Method: SUSPENSION) “active; positive”; (Test System: AMES SALMONELLA TYPHIMURIUM, Strain/Indicator: TA100, Metabolic Activation: NONE, Method: PREINCUBATION) “inactive; negative”; (Test System: AMES SALMONELLA TYPHIMURIUM, Strain/Indicator: TA100, Metabolic Activation: NONE, Method: SUSPENSION) “inactive; negative”; (Test System: AMES SALMONELLA TYPHIMURIUM, Strain/Indicator: TA100, Metabolic Activation: RAT, LIVER, S-9, PCB (5%), Method: PREINCUBATION) “inactive; negative”; (Test System: AMES SALMONELLA TYPHIMURIUM, Strain/Indicator: TA100, Metabolic Activation: RAT, LIVER, S-9, PCB, Method: SUSPENSION) “active; positive”.

Take `c1ccc2c(c1)cnc1ccccc12`: the mutagenic call is “active; positive” (Test System: AMES SALMONELLA TYPHIMURIUM, Strain/Indicator: TA98, Metabolic Activation: RAT, LIVER, S-9, PCB, Method: STANDARD PLATE) and “active; positive” (Test System: AMES SALMONELLA TYPHIMURIUM, Strain/Indicator: TA100, Metabolic Activation: RAT, LIVER, S-9, PCB, Method: STANDARD PLATE).
